{
  "source": "patent US20240352409A1",
  "about": "“CELL SEEDING AGENT AND SUBSTRATE FOR CELL TRANSPLANTATION USE” (CELLUSION INC., priority 2021, published 2024)",
  "key": {"[1]": {"test_system": "Macaca fascicularis bullous keratopathy model", "assay": "Transplantation of corneal endothelial substitute cell suspension into anterior chamber of bullous keratopathy model", "type": "in vivo", "experimental": "A cell suspension of iPS cell-derived corneal endothelial substitute cells (8×10^5 cells/160 μl) obtained in Example 1 was transplanted to the anterior chamber of a Macaca fascicularis bullous keratopathy model (conducted by SHIN NIPPON BIOMEDICAL LABORATORIES, LTD.). Two types of substrates for transplantation (containing insulin, insulin-like growth factor, and the like) were prepared: one with and one without the addition of phenol red. The corneal endothelial substitute cell suspension was transplanted into the anterior chamber of the eye by the following procedure. • (1) Corneal endothelial substitute cells suspended in two types of substrates for transplantation, with and without phenol red added, were injected into the anterior chamber using a 27-gauge syringe. • (2) Macaca fascicularis was placed face down for 3 hr. • (3) After 28 days of observation, the eyeballs were collected and observed macroscopically and microscopically. Formation of a corneal endothelial substitute cell layer and corneal thickness were measured for the transplanted eye. Corneal thickness was measured using a corneal thickness measuring device (Tomey Corporation; SP-100)."}, "[2]": {"test_system": "iPS cell-derived corneal endothelial substitute cells", "assay": "Influence of phenol red in cell seeding agent on engraftment, recovered cell number and survival rate in differentiation induction step", "type": "cell-based", "conditions": "with vs without phenol red", "experimental": "When induction into corneal endothelial substitute cell was started, iPS cells recovered using TrypLE-Select (Thermo Fisher Scientific) were suspended in a phenol red-added cell seeding agent or phenol red no-addition cell seeding agent. A 100 mm culture dish (Sumitomo Bakelite Co., Ltd.) was coated with iMatrix 511 at a concentration of 3 μg/ml, and iPS cells suspended in each cell seeding agent were seeded at a density of 1.0×10^4 cells/cm^2. Culture was started in a CO2 incubator at 37° C., and thereafter, the medium was replaced with phenol red-added corneal endothelial substitute cell induction medium or phenol red no-addition corneal endothelial substitute cell induction medium at a frequency of once every 2 to 3 days thereafter. Culture was performed for 14 days under the above-mentioned conditions in each medium for inducing corneal endothelial substitute cells. After 3, 5, and 7 days of culture, the state of the cells was confirmed under a microscope (FIG. 2A). After culturing for 14 days, for the groups in which cell engraftment was observed under a microscope, the cells were collected and the number of cells was counted. The cells were collected after removing the culture supernatant, washed twice using DPBS (−) (Thermo Fisher Scientific), detached using Accutase (Innovative Cell Technologies), and collected into a centrifuge tube. The cells collected into the centrifuge tube were separated by centrifugation, and after adjusting the cell concentration using a medium and the like, the cell concentration and survival rate were measured using an automatic cell counter (ChemoMetec) (FIG. 2B)."}, "[3]": {"test_system": "iPS cells (FF-101s04 strain)", "assay": "Engraftment of iPS cells seeded in phenolphthalein derivative-added cell seeding agents (differentiation induction, fixed or changed seeding density)", "type": "cell-based", "conditions": "derivative 0.22 mM, day 7; for cell engraftment at seeding number lower than specified density: seeding density lower than 1.04×10^4 cells/cm^2; for cell engraftment at specified seeding density: seeded at 1.04×10^4 cells/cm^2", "experimental": "T12.5 flask (Corning Incorporated/353107) was coated with iMatrix511 (MATRIXOME, Inc./892005) at a concentration of 6 μg/mL. iPS cells (FF-101s04 strain) were suspended in AK03N+Y medium at a density of 8.0×10^3 cells/cm^2, and were seeded into the T12.5 flask. Culture was started in a CO2 incubator at 37° C., and the medium was replaced the next day with AK03N medium not containing Y-27632. After a gap of 2 days, medium exchange was performed for 2 consecutive days, and passage was performed on the 6th day of culture.\nA T25 flask (Sumitomo Bakelite Co., Ltd./MS-23050) was coated with iMatrix511 (MATRIXOME, Inc./892005) at a concentration of 6 μg/mL. iPS cells were suspended in AK03N+Y medium at a density of 2.2×10^3 cells/cm^2, and were seeded into the T25 flask. Culture was started in a CO2 incubator at 37° C., and the medium was replaced the next day with AK03N medium not containing Y-27632. After a gap of 2 days, medium exchange was performed for 2 consecutive days, and passage was performed on the 6th day of culture.\nDMEM/F12 non phenol red (Thermo Fisher Scientific, Inc./11039-021) was used as the basal medium, and a phenol red-free corneal endothelial substitute cell induction medium was prepared (hereinafter also to be referred to as phenol red-free medium in this Example). To the basal medium (500 mL) were added, as additives, ITS-Supplement (Ventria/777ITS091), IGF1 (OrphanPacific, Inc.; Somazone for injection/858100075, 1 mg/mL), LIF (FUJIFILM Wako Pure Chemical Corporation/125-06661), IL-6 (Miltenyi Biotec/170-076-161), IL-11 (Pepro tech/AF-200-11), TNFα (Miltenyi Biotec/170-076-178), and water-soluble HYDROCORTONE Injection (Nichi-Iko Pharmaceutical Co., Ltd./27126333) described in the following Table 1.\nThe phenolphthalein derivatives shown in the following Table 2, B to D, were dissolved in advance in ethanol to a concentration of 6.6×10^−6 mol/mL. 30 mL each of the phenol red-free corneal endothelial substitute cell induction medium prepared in the above-mentioned 2. was dispensed into four 50 mL tubes, and 40.5 μL of A phenolsulfonphthalein injection 0.6% (AFP) was added to one of the four tubes. Furthermore, 100 μL of B cresol red solution with adjusted concentration was added to one of the remaining three tubes. Similarly, C thymol blue solution and D bromocresol purple solution were respectively added to the remaining two tubes. A total of four different phenolphthalein derivative-containing media were prepared and used as phenolphthalein derivative-added cell seeding agents. Each seeding agent was adjusted to have a phenolphthalein derivative concentration of 0.22 mM. […]"}, "[4]": {"test_system": "iPS cell-derived corneal endothelial substitute cells", "assay": "Influence of ROCK inhibitor on tight junction formation (ZO-1 expression) during passage operation in differentiation induction", "type": "cell-based", "conditions": "10 μM Y-27632 during passage operation; FIG. 1", "experimental": "An influence of a ROCK inhibitor during the passage operation in the differentiation induction step of iPS cell-derived corneal endothelial substitute cells was investigated. According to Example 1 and Experimental Example 2 of Patent Literature 3 (10 μM Y-27632 was used as ROCK inhibitor instead of fasudil), the expression of ZO-1 was investigated."}},
  "note": "Entries after “also recorded” stand apart in the source; their conditions may differ.",
  "data": [
    {"smiles": "O=S1(=O)OC(c2ccc(O)cc2)(c2ccc(O)cc2)c2ccccc21", "note": "[phenol red, phenolsulfonphthalein]", "values": [
      {"measurement": "engraftment and distribution of transplanted cells on posterior cornea", "setting": "[1]; 8×10^5 cells/160 μl into anterior chamber, substrate with phenol red, 28 days observation, FIG. 4", "result": "engrafted on the posterior cornea and spread uniformly"},
      {"measurement": "corneal thickness", "setting": "[1]; substrate for transplantation with phenol red, FIG. 3", "result": "a decrease in corneal thickness was observed; also recorded: corneal thickness decreased"},
      {"measurement": "corneal edema", "setting": "[1]; substrate for transplantation with phenol red, judged from corneal thickness, FIG. 3", "result": "corneal edema was improved; also recorded: corneal edema-improving effect was observed"},
      {"measurement": "engraftment of cells after seeding (microscope)", "setting": "[2]; 3rd, 5th, 7th day of culture, seeded at 1.0×10^4 cells/cm^2, FIG. 2A", "result": "Engraftment was clearly better"},
      {"measurement": "number of recovered viable cells", "setting": "[2]; day 14 of culture, FIG. 2B", "result": "clearly superior"},
      {"measurement": "survival rate", "setting": "[2]; day 14 of culture, FIG. 2B", "result": "clearly superior"},
      {"measurement": "cell engraftment at seeding number lower than specified density", "setting": "[3]", "result": "cell engraftment was confirmed"}
    ]},
    {"smiles": "Cc1cc(C2(c3cc(C)c(O)c(Br)c3)OS(=O)(=O)c3ccccc32)cc(Br)c1O", "note": "[bromocresol purple]", "values": [
      {"measurement": "cell engraftment at specified seeding density", "setting": "[3]", "result": "Engraftment was also confirmed"}
    ]},
    {"smiles": "C[C@@H](N)[C@H]1CC[C@H](C(=O)Nc2ccncc2)CC1", "note": "[Y-27632]", "values": [
      {"measurement": "cell transformation (epithelial-to-mesenchymal transition)", "setting": "[4]", "result": "causes transformation that appears to be epithelial-to-mesenchymal transition"},
      {"measurement": "formation of tight junction (expression of ZO-1)", "setting": "[4]", "result": "formation of tight junction was inhibited; also recorded: inhibits the formation of tight junction"}
    ]},
    {"smiles": "Cc1cc(C2(c3ccc(O)c(C)c3)OS(=O)(=O)c3ccccc32)ccc1O", "note": "[cresol red]", "values": [
      {"measurement": "cell engraftment at seeding number lower than specified density", "setting": "[3]", "result": "cell engraftment was confirmed"}
    ]},
    {"smiles": "Cc1cc(O)c(C(C)C)cc1C1(c2cc(C(C)C)c(O)cc2C)OS(=O)(=O)c2ccccc21", "note": "[thymol blue]", "values": [
      {"measurement": "cell engraftment at specified seeding density", "setting": "[3]", "result": "Engraftment was also confirmed"}
    ]}
  ]
}
